# Experimental data: patent US10066208B2, “Kit and method for promoting mesenchymal stem cell differentiation” (priority 2014, dated 2018)
# Experiments:
# [1] = tested on: mesenchymal stem cell; assay: Alcian Blue stain of mesenchymal stem cell condensation and glycosaminoglycan secretion, 2-dimensional plate culture; type: cell-based, Wistar rats; conditions: 3 and 7 days, vs control without kartogenin
# Text: The Isolation and Culture of the Mesenchymal Stem Cell • 1. The cell source was taken from the four limbs of two-week old Wistar rats. Rats were sacrificed and immersed in 75% alcohol. The operation process for taking four limbs was under half sterile environment. • 2. During the cellular collecting processes, sterilized equipments were used in the whole processes. Both tibia and femur of the lower limb were taken. The tip of the scissor was used to separate the bone and the muscle. The knee joints and the hip joints were taken down along the bones; the part near the ankle was difficult to remove completely, so a direct cut was made close to the ankle joints. Only the humerus in upper limb had enough amounts of cells, so just took humerus and the scapula was processed as ankle joints in having a direct cut. Finally the limbs were soaked and washed in phosphate buffer solution (PBS) with 10% antibiotics (penicillin 10,000/ml, streptomycin 10 mg/ml, amphotericin-B 0.025 mg/ml). • 3. The muscle on the limbs was clearly removed under solution, the protruding parts of the two ends were cut out and soaked into new PBS (containing 1% antibiotics). Cells were washed out by syringe filled with PBS. • 4. PBS containing cells was placed in centrifuge tubes and centrifugated at 2000 rpm for 5 minutes. The red blood cells were suspended cells which adhered to and flowed with the mesenchymal stem cell. […]
# [2] = tested on: mesenchymal stem cell; assay: Real-time PCR gene expression of mesenchymal stem cell, 2-dimensional plate culture; type: cell-based, Wistar rats
# Text: The Isolation and Culture of the Mesenchymal Stem Cell • 1. The cell source was taken from the four limbs of two-week old Wistar rats. Rats were sacrificed and immersed in 75% alcohol. The operation process for taking four limbs was under half sterile environment. • 2. During the cellular collecting processes, sterilized equipments were used in the whole processes. Both tibia and femur of the lower limb were taken. The tip of the scissor was used to separate the bone and the muscle. The knee joints and the hip joints were taken down along the bones; the part near the ankle was difficult to remove completely, so a direct cut was made close to the ankle joints. Only the humerus in upper limb had enough amounts of cells, so just took humerus and the scapula was processed as ankle joints in having a direct cut. Finally the limbs were soaked and washed in phosphate buffer solution (PBS) with 10% antibiotics (penicillin 10,000/ml, streptomycin 10 mg/ml, amphotericin-B 0.025 mg/ml). • 3. The muscle on the limbs was clearly removed under solution, the protruding parts of the two ends were cut out and soaked into new PBS (containing 1% antibiotics). Cells were washed out by syringe filled with PBS. • 4. PBS containing cells was placed in centrifuge tubes and centrifugated at 2000 rpm for 5 minutes. The red blood cells were suspended cells which adhered to and flowed with the mesenchymal stem cell. The supernatant was carefully removed. • 5. Hank's Balanced Salt Solution (HBSS) was added into the centrifugated cells. After mixing up, 5 mL of HBSS mixed with cells was added into 5 mL of Ficoll separating solution and centrifugated at 18-20° C. at the speed 300 g for 40 minutes. • 6. After centrifugation, the supernatant was sucked out; large amount of PBS was added to dilute the Ficoll separating solution and washed for 2-3 times. • 7. Medium was added into the centrifugated cells and mixed up for culturing. Dulbecco's Modified Eagle Medium (DMEM) with 10% fetal bovine serum (FBS) was used for the stem cell medium in this example. • 8. After the cells attached, the medium was changed every 2-3 days. When the cells was fully confluent, subcultured as the proportion of one to three or one to four.
# (§1) The gene expression of the mesenchymal stem cell was examined by Real-time PCR. The results were used for determining the medium formulation in the following scaffold culture and bioreactor culture. The primers used in the present invention were shown as the following table:
# The cells cultured in DMEM with 10% FBS were used as the control group.
# [3] = tested on: mesenchymal stem cell; assay: Live and death staining (Calcein-AM/PI) of mesenchymal stem cell in tri-copolymer scaffold, static culture; type: cell-based, Wistar rats; conditions: 1.0 kartogenin, 7 days, vs control group
# Description: (§2) The mesenchymal stem cells used in the present invention were in the third generation of subculture to ensure the maintenance of the cell morphology. The proliferated stem cells were dissociated by trpsin, collected and condensed to 10^7 cells/mL. 50 μL of the cell solution was seeded on each dry scaffold. The cells were divided into static culture group and bioreactor culture group. The former changed the medium every 2 to 3 days and in the latter, after cells seeding into the scaffold and culturing for one day, it was moved into the bioreactor.
# After the combination of the gelatin-hyaluronan-chondroitin tri-copolymer with the mesenchymal stem cell, the differentiating effects under the 3-dimensional culture were confirmed. Through the live and death staining, the cell condensation during early differentiation stage was examined at the presence of 1.0 kartogenin. […] Apoptosis was the process during chondrogenic differentiation of stem cell.
# The fluorescent staining of Calcein-AM and Propidium Iodide (PI) was used to examine the survival distribution of the cells in the scaffold. The former was lipophilic which could easily enter into the living cell and being hydrolyzed to produce fluorescent compounds, calcein, so that only the living cell could be stained with Calcin-AM. […] When PI bound to a DNA double helix, it emitted red fluorescence. […]
# [4] = tested on: mesenchymal stem cell; assay: Real-time PCR gene expression of mesenchymal stem cell in tri-copolymer scaffold with kartogenin, bioreactor culture; type: cell-based, Wistar rats
# Text: as §1, §2
# After culturing the tri-copolymer material, the mesenchymal stem cell and kartogenin in the bioreactor for 7, 14 and 21 days, mRNA genes expression were examined. In this example, the control group was the mesenchymal stem cell culturing […].
# After culturing in the bioreactor for 7, 14, and 21 days, mRNA gene expression was examined. In this example, the control group was the mesenchymal stem cell culturing on the 2-dimensional plate for 1 day.
# [5] = tested on: mesenchymal stem cell; assay: Hematoxylin/Eosin histological examination of cell-material complex sections, bioreactor culture; type: cell-based, Wistar rats; conditions: tri-copolymer scaffold
# Description: After combining the gelatin-hyaluronan-chondroitin tri-copolymer and the stem cell, the coculture construct was seeded and transferred into the dynamic bioreactor for culturing. The morphology of the differentiated cells were stained with Hematoxylin/Eosin, and in the present example, the cell-material complex sections were examined at 3 time points: Day 0, 7 and 21.
# [6] = tested on: mesenchymal stem cell; assay: Immunohistochemical staining of aggrecan and type II collagen, bioreactor culture; type: cell-based, Wistar rats; conditions: tri-copolymer scaffold, kartogenin
# Description: The aggrecan and the type II collagen were characteristic proteins of the cartilage cells. The coculture structure was cultured in the dynamic bioreactor and the expressions of the proteins were presented by immunohistochemical staining. The samples culturing under the dynamic culture environment for 7, 14, and 21 days were washed in PBS, immersed in 2.5% formaldehyde for 30 minutes for immobilization. The samples were paraffin-embedded and sectioned into 5 μm. The immunohistochemistry was used to examine the characteristic protein of the cartilage cells which comprises the aggrecan and the type II collagen. After dewaxing by xylene and rehydration, the activity of endogenous peroxidase was cleaned by Hydrogen Peroxide Block reagent (ab80436, abcam, MA, USA). After antigen was repaired, non-specific background protein was bound by Protein Block (ab80436). The primary antibodies (rabbit anti-collagen-II (ab53047), rabbit anti-aggrecan (GTX86902)) of type II collagen and aggrecan were reacted with the tissue slices at 4° C. for 12 hr. After rinsing, the slices were bound with horseradish peroxidase (HRP) conjugated secondary antibody (goat anti-rabbit HRP conjugate). […] Last, the hematoxylin was incubated with the slices at room temperature for 30 minutes for counterstain.
# In the present example, the cell-material complex sections were examined at 3 time points: Day 0, 7 and 21. […]
# [7] = tested on: mesenchymal stem cell; assay: Safranin-O staining of glycosaminoglycans, bioreactor culture; type: cell-based, Wistar rats; conditions: tri-copolymer scaffold, kartogenin, 21 days
# Text: Glycosaminoglycans (GAGs) were mainly the content of the extracellular matrix secreted by the chondrocyte.
# The cells were distributed on the tri-copolymer scaffold at the beginning of culture. Red was for Safranin-O staining. The Safranin-O staining of the background was from the chondroitin-6-sulfate of the material itself which was one of the Glycosaminoglycans. […] After the cell culturing for 21 days, the cell mass was examined, of which size was about 100 μm.
# [8] = tested on: mesenchymal stem cell; assay: DMMB quantification of glycosaminoglycans in the bioreactor medium; type: cell-based, Wistar rats; conditions: tri-copolymer scaffold, kartogenin, day 7, 14 and 21
# Description: 1,9-dimethylmethlene blue (DMMB) method was used for quantifying Glycosaminoglycans (GAGs). 16 mg of DMMB was dissolved in 5 mL of 95% ethanol and diluted with 3 mL of formic acid and 25.6 mL of NaOH. Double distilled water was used to adjust the final volume to 1 liter, and the solution was maintained at pH 3.5.
# 250 μL of the DMMB solutions were added into 40 μL of the diluted sample solutions which were from different time points. After reacted in the dark for 10 min, the absorbance of 520 nm was detected and then the GAGs concentration was determined by interpolated onto the standard curve calculated by the chondroitin-6-sulfate.
# The GAGs concentrations in the medium were determined by the DMMB method through collecting samples from the bioreactor at different time points.
# [9] = tested on: hMSC; conditions: cited from earlier work
# [10] = day 7, control MSC on 2-dimensional plate 1 day
# [11] = day 14, control MSC on 2-dimensional plate 1 day
# [12] = day 21, control MSC on 2-dimensional plate 1 day
structure (smiles),measurement,setting,value
O=C(O)c1ccccc1C(=O)Nc1ccc(-c2ccccc2)cc1 [kartogenin],early condensation and secretion of glycosaminoglycans (Alcian Blue stain),[1]; 0.1 μM kartogenin,promoted the condensation phenomenon
same,early condensation and secretion of glycosaminoglycans (Alcian Blue stain),[1]; 1.0 μM kartogenin,promoted the condensation phenomenon
same,TIMPs expression compared to the control group,"[2]; 0.1 μM kartogenin, day 14",0.91±0.04 fold
same,Sox-9 gene expression relative to the control group,"[2]; 1.0 μM kartogenin, 7 days",1.66±0.27 fold
same,Aggrecan gene expression,"[2]; 1.0 μM kartogenin, 7 days, higher than 0.1 μM group (p<0.001)",3.99±0.63 fold
same,Aggrecan gene expression compared to the untreated group,"[2]; 1.0 μM kartogenin, 14 days",6.44±0.35 fold
same,Sox-9 gene expression,"[2]; 1.0 μM kartogenin, day 3 and day 7",up-regulated
same,Sox-9 gene expression,"[2]; 1.0 μM kartogenin, day 14",0.56±0.04 fold
same,TIMPs expression compared to the control group,"[2]; 1.0 μM kartogenin, day 14",1.63±0.249 fold
same,cell condensation (live and death staining),[3],cell condensation was occurred
same,proportion of cell death (live and death staining),[3],higher
same,Aggrecan expression compared to the control group,[4]; day 7,11.66±4.75 fold
same,Col2a1 gene expression compared to the control group,[4]; day 7,13.6±4.7 fold
same,TIMPs expression,[4]; day 7,5.60±1.24 fold
same,Sox-9 expression,"[4]; day 7, control MSC cultured 1 day",2.51±0.90 fold
same,Col1a1 expression compared to the control group,[4]; [10],13.19±2.90 fold
same,Col10a1 expression,[4]; [10],39.23±9.39 fold
same,Runx 2 expression compared to the control group,[4]; [10],8.60±3.55 fold
same,Aggrecan expression compared to the control group,[4]; day 14,12.33±6.3 fold
same,Col2a1 gene expression compared to the control group,[4]; day 14,28.26±11.64 fold
same,TIMPs expression,[4]; day 14,5.79±5.25 fold
same,Sox-9 expression,"[4]; day 14, control MSC cultured 1 day",3.91±2.12 fold
same,Col1a1 expression compared to the control group,[4]; [11],17.26±1.38 fold
same,Col10a1 expression,[4]; [11],36.08±26.00 fold
same,Runx 2 expression compared to the control group,[4]; [11],9.89±3.82 fold
same,Aggrecan expression compared to the control group,[4]; day 21,9.74±3.83 fold
same,Col2a1 gene expression compared to the control group,[4]; day 21,40.32±9.13 fold
same,TIMPs expression,[4]; day 21,3.94±1.08 fold
same,Sox-9 expression,"[4]; day 21, control MSC cultured 1 day",3.06±0.99 fold
same,Col1a1 expression compared to the control group,[4]; [12],13.14±6.07 fold
same,Col10a1 expression,[4]; [12],5.56±5.23 fold
same,Runx 2 expression compared to the control group,[4]; [12],7.35±1.96 fold
same,cell condensation (Hematoxylin/Eosin section),"[5]; kartogenin induction, day 7",cell condensation was presence
same,lacunae structure (Hematoxylin/Eosin section),"[5]; kartogenin, day 21",lacunae like structure was examined
same,size of the cell mass (Hematoxylin/Eosin section),"[5]; kartogenin, day 21",about 100 μm
same,type II collagen expression (immunohistochemical staining),"[6]; day 7 and 21, not distinct at day 0",positively stained
same,aggrecan expression (immunohistochemical DAB staining),[6]; day 21 compared with day 7,higher expression of aggrecan
same,accumulation of GAGs (Safranin-O staining),[7],accumulation of the GAGs was examined on the surface of the cell mass
same,size of the cell mass (Safranin-O/Hochest staining),[7],about 100 μm
same,secretion of GAGs into the medium (DMMB method),[8],increased
same,EC50,[9],100 nM
